According to paper PMC6332353, “New Sulphated Flavonoids from Wissadula periplocifolia (L.) C. Presl (Malvaceae)” (Molecules, 2015):
In brackets after ≈: the same amount, converted by molar mass.

Columns and labels:
[1] = test system: prostate carcinoma cell line (PC-3M); test: alamarBlue cytotoxicity assay, PC-3M cells; assay type: cell-based; details: Homo sapiens, tumour cell line, 24 h treatment, 0.4–100 µg/mL, mean ± SD
From the text: (§1) All media and supplements were obtained from Invitrogen (Paisley, UK). The following human cell lines were used in the current study: the human glioma cancer cell line (UVW) previously described, the prostate carcinoma cell line (PC-3M), the normal prostate epithelial cell line (PNT2A), and the normal foreskin fibroblast cell line (Hs27). All cell lines were obtained from in house stocks (UVW) or from stocks purchased from the ATCC (Rockville, MD, USA) and are routinely genetically verified and confirmed as free from mycoplasma contamination. UVW, PNT2A, and Hs27 cells were maintained in Eagle’s Minimum Essential Medium (MEM), RPMI 1640 Medium, and Dulbecco’s Modified Eagle’s Medium (DMEM), respectively. All media were supplemented with 10% v/v fetal bovine serum, penicillin (100 units/mL), streptomycin (100 μg/mL), Fungizone (2.5 μg/mL of amphotericin B), and L-glutamine (2 mM). The PC-3M cells were cultured in the same MEM medium as described for UVW cells with the addition of 1% v/v MEM Non-essential Amino Acids Solution, 1% v/v MEM Vitamin Solution, and 1mM sodium pyruvate. The cells were cultured at 37 °C in a humidified atmosphere of 5% CO2.
(§2) Each sample tested was dissolved in DMSO at 50 mg/mL and kept at −20 °C until extract preparation was proceeded. For the biological assays, the samples were diluted in culture medium to get the selected concentrations. The toxicity of the flavonoids on UVW, PC-3M, PNT2A, and Hs27 cells was assessed by the fluorometric measurement of metabolic activity using the AlamarBlue assay (Invitrogen). Briefly, cells were seeded on 96-well culture plates (3.3 × 10^3cells/well). […] Fluorescence was measured on a micro plate fluorescence reader (Spectramax Gemini XS, Molecular Devices, Sunnyvale, CA, USA) using an excitation wavelength of 560 nm and an emission wavelength of 590 nm. Cell viability was calculated and plotted as the percentage of metabolically active cells relative to the control. […]

[2] = test system: human glioma cancer cell line (UVW); test: alamarBlue cytotoxicity assay, UVW cells; assay type: cell-based; details: tumour cell line, 24 h treatment, 0.4–100 µg/mL, mean ± SD
From the text: as §1, §2

[3] = test system: normal prostate epithelial cell line (PNT2A); test: alamarBlue cytotoxicity assay, PNT2A cells; assay type: cell-based; details: Homo sapiens, 24 h treatment, 0.4–100 µg/mL, mean ± SD
From the text: as §1, §2

[4] = test system: lung cancer A549; set-up: method as in PMID 25000464; details: cited from earlier work
[5] = test system: carcinoma of Ehrlich tumours; set-up: method as in earlier work; details: tumours implanted in mice; cited from earlier work
[6] = test system: sarcoma 180; set-up: method as in earlier work; details: tumours implanted in mice; cited from earlier work
[7] = test system: normal foreskin fibroblast cell line (Hs27); test: alamarBlue cytotoxicity assay, Hs27 cells; assay type: cell-based; details: Homo sapiens, 24 h treatment, 0.4–100 µg/mL, mean ± SD
From the text: All media and supplements were obtained from Invitrogen (Paisley, UK). The following human cell lines were used in the current study: the human glioma cancer cell line (UVW) previously described, the prostate carcinoma cell line (PC-3M), the normal prostate epithelial cell line (PNT2A), and the normal foreskin fibroblast cell line (Hs27). All cell lines were obtained from in house stocks (UVW) or from stocks purchased from the ATCC (Rockville, MD, USA) and are routinely genetically verified and confirmed as free from mycoplasma contamination. UVW, PNT2A, and Hs27 cells were maintained in Eagle’s Minimum Essential Medium (MEM), RPMI 1640 Medium, and Dulbecco’s Modified Eagle’s Medium (DMEM), respectively. All media were supplemented with 10% v/v fetal bovine serum, penicillin (100 units/mL), streptomycin (100 μg/mL), Fungizone (2.5 μg/mL of amphotericin B), and L-glutamine (2 mM). […] The toxicity of the flavonoids on UVW, PC-3M, PNT2A, and Hs27 cells was assessed by the fluorometric measurement of metabolic activity using the AlamarBlue assay (Invitrogen). […] Fluorescence was measured on a micro plate fluorescence reader (Spectramax Gemini XS, Molecular Devices, Sunnyvale, CA, USA) using an excitation wavelength of 560 nm and an emission wavelength of 590 nm. Cell viability was calculated and plotted as the percentage of metabolically active cells relative to the control. […]

| Compound | IC50 [1] [µg/mL] | IC50 [2] [µg/mL] | IC50 [3] [µg/mL] | toxic effects on A549 cells (in words) [4] | tumour growth inhibition, carcinoma of Ehrlich [5] | tumour growth inhibition, sarcoma 180 [6] | IC50 [7] [µg/mL] |
| --- | --- | --- | --- | --- | --- | --- | --- |
| COc1ccc(-c2cc(=O)c3c(O)cc(OC)c(O)c3o2)cc1 [7,4′-di-O-methylisoscutellarein] | > 100 | 98.5 ± 1.13 (≈ 314 µM) | 88.7 ± 1.13 (≈ 282 µM) |  |  |  |  |
| O=C(/C=C/c1ccc(O)cc1)OC[C@H]1O[C@@H](Oc2c(-c3ccc(O)cc3)oc3cc(O)cc(O)c3c2=O)[C@H](O)[C@@H](O)[C@@H]1O [tiliroside, kaempferol-3-O-b-D-(6′′-E-p-coumaroyl) glucopyranoside] | 60.5 ± 1.12 (≈ 102 µM) | > 100 | > 100 | toxic effects | significantly inhibited the growth | significantly inhibited the growth |  |
| COc1ccc(-c2cc(=O)c3c(O)cc(O)cc3o2)cc1 [acacetin] | 21.1 ± 1.16 (≈ 74.3 µM) | 27.4 ± 1.09 (≈ 96.3 µM) | 51.3 ± 1.09 (≈ 181 µM) |  |  |  | > 100 |
